Laboratory results: patent publication US8940863B2, “Selective anticancer chimeric peptides which bind neuropilin receptor” (Stella Pharma Corporation, priority 2008, dated 2015)
One block for each compound: values may come before it. Non-standard residues stand in square brackets, D forms with d. Residues, ends and D or L forms follow the SMILES beside them.

How the values were obtained:
[1] = test system: T47D; assay: Annexin V and caspase 3,7 flow cytometry; type: cell-based, human; conditions: 10 μM, two hours
Experimental: T47D and PE cells were incubated with TfR-lytic chimeric peptide (10 μM) and lytic peptide (10 μM) for two hours. Annexin V (FIG. 26A) and caspase 3,7 activity (FIG. 26B) were detected in the green channel, and propidium iodide staining was detected in the red channel, and flow cytometry analysis was performed. In T47D cells treated with TfR-lytic chimeric peptide, the ratio of the right half panel showing Annexin V-positive cells and caspase 3,7-activated cells increased.

[2] = test system: HC cell (hepatocyte cell); assay: Cell viability assay (WST-8); type: cell-based, human; conditions: 72 h
Source text: (§1) Correlation between IC50 values was observed.

[3] = test system: T47D; assay: Cell viability assay (WST-8); type: cell-based, human; conditions: for IC50: 72 h
Source text: as §1

[4] = test system: T47D breast cancer cells; assay: Membrane permeabilization (calcein); type: cell-based, human; conditions: 10 μM, 0 to 15 minutes
Experimental: Furthermore, after addition of TfR-lytic chimeric peptide at concentration of 10 μM, the cells in calcein solution were observed after 0 minute, five minutes, 10 minutes and 15 minutes.

[5] = test system: SN-19; assay: Cell viability assay (WST-8); type: cell-based
Source text: as §1

[6] = test system: PE cell (pancreatic epidermal); assay: Cell viability assay (WST-8); type: cell-based; conditions: 72 h
Source text: as §1

[7] = test system: COLO587; assay: Cell viability assay (WST-8); type: cell-based
Source text: as §1

[8] = test system: U251
[9] = test system: MDA-MB-231
[10] = test system: MRC-5; conditions: 72 h
[11] = test system: SK-BR-3
[12] = test system: T47D; assay: Short-exposure killing of cancer cells (WST-8); type: cell-based, human; conditions: 1 to 180 minutes exposure
Experimental: The cells were further cultured for 72 hours.

[13] = test system: LNCaP; conditions: for IC50: 72 h
[14] = test system: PE cells (normal cells); assay: Annexin V and caspase 3,7 flow cytometry; type: cell-based; conditions: 10 μM, two hours
[15] = test system: OE19; conditions: 72 h
[16] = test system: BxPC-3; conditions: 72 h
[17] = test system: HEK293; conditions: 72 h
[18] = test system: U937; conditions: 72 h

IC50 [3]: 4.8 µM
IC50 ratio Lytic/TfR-lytic ([3]; T47D): 3.8
IC50 ([7]; 72 h): 6.9 µM
IC50 ratio Lytic/TfR-lytic ([7]; COLO587): 2.0
IC50 ([8]; 72 h): 6.8 µM
IC50 ratio Lytic/TfR-lytic ([8]; U251): 2.8
IC50 ([9]; 72 h): 6.7 µM
IC50 ratio Lytic/TfR-lytic ([9]; MDA-MB-231): 4.4
IC50 ([11]; 72 h): 5.3 µM
IC50 ratio Lytic/TfR-lytic ([11]; SK-BR-3): 5.0
IC50 [13]: 6.2 µM
IC50 ratio Lytic/TfR-lytic ([13]; LNCaP): 2.7
SMILES: CSCC[C@H](NC(=O)[C@@H]1CCCN1C(=O)[C@@H]1CCCN1C(=O)[C@H](CCCNC(=N)N)NC(=O)[C@H](Cc1c[nH]cn1)NC(=O)[C@@H](N)[C@@H](C)O)C(=O)N[C@@H](Cc1c[nH]c2ccccc12)C(=O)N[C@@H](CO)C(=O)N1CCC[C@H]1C(=O)N[C@H](C(=O)N[C@@H](Cc1c[nH]c2ccccc12)C(=O)N1CCC[C@H]1C(=O)NCC(=O)NCC(=O)NCC(=O)N[C@@H](CCCCN)C(=O)N[C@@H](CC(C)C)C(=O)N[C@H](CC(C)C)C(=O)N[C@@H](CC(C)C)C(=O)N[C@@H](CCCCN)C(=O)N[C@H](CC(C)C)C(=O)N[C@@H](CC(C)C)C(=O)N[C@H](CCCCN)C(=O)N[C@H](CCCCN)C(=O)N[C@@H](CC(C)C)C(=O)N[C@@H](CC(C)C)C(=O)N[C@@H](CCCCN)C(=O)N[C@H](CC(C)C)C(=O)N[C@@H](CC(C)C)C(=O)N[C@@H](CCCCN)C(=O)N[C@@H](CCCCN)C(=O)N[C@@H](CCCCN)C(=O)O)C(C)C [TfR-lytic peptide] (H-THRPPMWSPVWPGGGKL[dL]LK[dL]L[dK][dK]LLK[dL]LKKK-OH; N-terminus and C-terminus assumed)
ratio of Annexin V-positive cells and caspase 3,7-activated cells [1]: increased
IC50 [2]: > 20 µM
membrane permeation [4]: permeated the membrane was observed
IC50 ([5]; 72 h): 8.2 µM
IC50 ratio Lytic/TfR-lytic ([5]; SN-19): 3.1
IC50 [6]: > 20 µM
IC50 [10]: > 20 µM
rapid killing of cancer cells [12]: rapidly kill T47D cancer cells
percentage of Annexin V-positive cells and caspase 3,7-activated cells [14]: did not increase

IC50 [3]: 6.4 µM
IC50 [15]: 7.1 µM
IC50 [16]: 12.2 µM
IC50 [18]: 3.5 µM
IC50 [13]: 8.9 µM
SMILES: CC(C)C[C@H](NC(=O)[C@H](CC(C)C)NC(=O)[C@@H](CCCCN)NC(=O)[C@@H](CCCCN)NC(=O)[C@H](CC(C)C)NC(=O)[C@@H](CC(C)C)NC(=O)[C@H](CCCCN)NC(=O)[C@H](CC(C)C)NC(=O)[C@@H](CC(C)C)NC(=O)[C@H](CC(C)C)NC(=O)[C@H](CCCCN)NC(=O)CNC(=O)CNC(=O)CNC(=O)[C@H](CCCNC(=N)N)NC(=O)[C@@H]1CCCN1C(=O)[C@@H]1CCCN1C(=O)[C@H](CC(C)C)NC(=O)[C@H](Cc1c[nH]c2ccccc12)NC(=O)[C@@H](NC(=O)[C@H](C)N)[C@@H](C)O)C(=O)N[C@@H](CCCCN)C(=O)N[C@H](CC(C)C)C(=O)N[C@@H](CC(C)C)C(=O)N[C@@H](CCCCN)C(=O)N[C@@H](CCCCN)C(=O)N[C@@H](CCCCN)C(=O)O [VEGFR2-Lytic] (H-ATWLPPRGGGKL[dL]LK[dL]L[dK][dK]LLK[dL]LKKK-OH; N-terminus and C-terminus assumed)
IC50 [17]: > 20 µM
IC50 [10]: > 20 µM
